# Activity calls are given as the source filed them. No cut-off for these calls is given here.
# Experiments:
# [1] = molecular target: T1, Peroxisome proliferator-activated receptor gamma (Homo sapiens) (UniProt P37231); assay: Antagonist activity at PPARgamma in HEK293 cells assessed as suppression of rosiglitazone induced PPARgamma transactivation at 30 uM by dual-luciferase reporter gene assay relative to control; type: cell-based; design: scale not given: the % may be the effect or the level left
# T1 sequence (whole entry): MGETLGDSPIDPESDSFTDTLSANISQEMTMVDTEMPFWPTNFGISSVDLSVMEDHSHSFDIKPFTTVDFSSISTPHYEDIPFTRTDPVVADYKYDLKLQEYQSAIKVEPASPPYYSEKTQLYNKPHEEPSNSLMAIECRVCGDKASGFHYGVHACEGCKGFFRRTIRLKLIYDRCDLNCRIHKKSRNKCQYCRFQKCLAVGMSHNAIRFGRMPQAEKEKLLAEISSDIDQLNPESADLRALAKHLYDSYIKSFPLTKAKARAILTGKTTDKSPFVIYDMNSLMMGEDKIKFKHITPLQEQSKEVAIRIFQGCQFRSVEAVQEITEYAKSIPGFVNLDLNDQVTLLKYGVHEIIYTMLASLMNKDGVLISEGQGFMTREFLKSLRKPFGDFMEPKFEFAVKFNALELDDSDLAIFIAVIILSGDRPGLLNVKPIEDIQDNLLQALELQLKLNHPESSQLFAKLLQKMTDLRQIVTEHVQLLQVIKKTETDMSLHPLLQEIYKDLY
# HepG2 [2] = assay: Insulin-sensitizing activity in human HepG2 cells assessed as increase in glucose consumption at 10 uM relative to control; type: functional
# HepG2 [3] = assay: Insulin-sensitizing activity in human HepG2 cells assessed as glucose consumption at 10 uM (Rvb= 2.04 +/- 0.12 mM); type: functional
# HepG2 [4] = assay: Insulin-sensitizing activity in human HepG2 cells assessed as fold change in glucose consumption at 10 uM relative to CAA; type: functional
# HepG2 [5] = assay: Insulin-sensitizing activity in human HepG2 cells assessed as fold change in glucose consumption at 10 uM relative to pioglitazone; type: functional
# Mus musculus = species: Mus musculus; assay: Hypoglycemic activity in db/db mouse assessed as improvement in oral glucose tolerance measured up to 120 mins by OGTT; type: functional, organism-based
# [6] = molecular target: T1, Peroxisome proliferator-activated receptor gamma (Homo sapiens); assay: Antagonist activity at PPARgamma in HEK293 cells assessed as fold increase in suppression of rosiglitazone induced PPARgamma transactivation at 30 uM by dual-luciferase reporter gene assay relative to CAA; type: cell-based
SMILES,Activity [1] [%],Activity (HepG2 [2]) [%],Activity (HepG2 [3]) [mM],Activity ([1]; filed as antagonist) [%],fold change (FC) (HepG2 [4]),fold change (FC) (HepG2 [5]),Activity (Mus musculus),fold change (FC) [6]
COc1cc(O)c(C(=O)O)c(CC(=O)c2ccc(Cl)cc2Cl)c1,15.9,10.2,2.25,–,–,–,–,–
COc1cc(O)c(C(=O)O)c(CS(=O)(=O)c2ccccc2)c1CC=C(C)C,-1,4.9,2.14,–,–,–,–,–
COc1cc(O)c(C(=O)O)c(CC(=O)c2ccc(F)cc2)c1CC=C(C)C,–,39.7,2.85,72.8,–,–,–,–
COc1cc(CC(=O)c2cccs2)c(C(=O)O)c(O)c1CC=C(C)C,–,19.1,2.43,90.2,–,–,–,–
COc1cc(O)c(C(=O)O)c(CC(=O)c2cccs2)c1,8.7,9.1,2.24,–,–,–,–,–
COc1cc2c(c(OCC=C(C)C)c1)C(=O)N(C(C)c1cccc(C(F)(F)F)c1)CC2 (centres undefined),–,30.6,2.66,79.4,–,–,–,–
COc1cc(O)c(C(=O)O)c(CC(=O)c2ccc(Cl)cc2Cl)c1CC=C(C)C,–,23.1,2.52,54.3,–,–,–,–
COc1cc2c(c(OCC=C(C)C)c1)C(=O)N(Cc1ccc(F)c(Cl)c1)CC2,–,36.9,2.79,61.1,–,–,–,–
COc1cc2c(c(OCC=C(C)C)c1)C(=O)N(Cc1cccc(C(F)(F)F)c1)CC2,–,50.6,3.07,98.2,1.5,1.2,Active,1.3
COc1cc(O)c(C(=O)O)c(CC(=O)c2ccc(Cl)cc2)c1CC=C(C)C,11.3,27.5,2.6,–,–,–,–,–
COc1cc(O)c(C(=O)O)c(CC(=O)c2ccccc2)c1CC=C(C)C,–,34,2.73,73.7,–,–,–,–
COc1cc(CS(=O)(=O)c2ccccc2)c(C(=O)O)c(O)c1CC=C(C)C,1.9,-3.4,1.97,–,–,–,–,–
COc1cc(O)c(C(=O)O)c(CS(=O)(=O)c2ccccc2)c1,-14,-9.4,1.85,–,–,–,–,–
COc1cc(O)c(C(=O)O)c(CC(=O)c2ccc(F)cc2)c1,6.3,-1,2.02,–,–,–,–,–
COc1cc(O)c(C(=O)O)c(CC(=O)c2ccc(Cl)cc2)c1,12,16.3,2.37,–,–,–,–,–
COc1cc(O)c(C(=O)O)c(CC(=O)c2cccs2)c1CC=C(C)C,–,18,2.41,84.6,–,–,–,–
COc1cc2c(c(OCC=C(C)C)c1)C(=O)N(C(C)c1ccccc1)CC2 (centres undefined),–,28.5,2.62,81.7,–,–,–,–
COc1cc(CC(=O)c2ccc(Cl)cc2Cl)c(C(=O)O)c(O)c1CC=C(C)C,–,31.9,2.69,83.2,–,–,–,–
COc1cc(CC(=O)c2ccc(Cl)cc2)c(C(=O)O)c(O)c1CC=C(C)C,28.1,26.2,2.59,–,–,–,–,–
COc1cc2c(c(OCC=C(C)C)c1)C(=O)N(Cc1cccc(F)c1)CC2,–,37.4,2.8,75.1,–,–,–,–
COc1cc(CC(=O)c2ccc(F)cc2)c(C(=O)O)c(O)c1CC=C(C)C,–,45.6,2.97,93.4,–,–,–,–
CCc1ccc(CCOc2ccc(CC3SC(=O)NC3=O)cc2)nc1 (centres undefined) [PIOGLITAZONE],–,43.3,2.92,–,–,–,–,–

# — ChEMBL document CHEMBL5053526, “Synthesis and biological evaluation of cajanonic acid A derivatives as potential PPARγ antagonists” (2021)
